Laboratory results published in PMC10913730, “Antimicrobial activity of a natural compound and analogs against multi-drug-resistant Gram-positive pathogens” (Microbiology Spectrum, 2024).
≈ marks a conversion by molar mass, not a printed value. Where two headings read alike, the source gives them in different places.

Tests used:
MRSA isolates = assay: MIC/MBC, CLSI broth microdilution, MRSA isolates; assay type: cell-based, Staphylococcus aureus; conditions: for change of MIC and MBC with the reduction in pH: six MRSA isolates, pH lowered to 5.5
[1] = Aqueous solubility of compounds reconstituted at 10 mg/mL in water; conditions: 10 mg/mL in distilled deionized water
[2] = pH and Ka of 10-g/L aqueous solutions (pH meter); assay type: physicochemical; conditions: 10-g/L solution in distilled, deionized water; for pH of solution: room temperature
MRSA isolate TCH 1516 [3] = assay: Resistance acquisition during serial passage; assay type: cell-based, Staphylococcus aureus; conditions: serial passage, after 21 days
Method: MRSA isolate TCH 1516 was grown to the stationary phase (OD650 = 1.0) in 10 mL of MH broth. […] The second highest drug concentration resulting in bacterial growth (OD650 >1.0) was used as the inoculum after a 1:1,000 dilution for subsequent steps, every 24 hours, for up to 21 days.

MRSA isolate TCH 1516 [4] = assay: Single-step resistance development; assay type: cell-based, Staphylococcus aureus; conditions: TCH 1516 stationary phase; C59 as low as 2× MIC, vancomycin up to 8× MIC
Method: For the single-step study, bacteria were grown to the stationary phase as described above. Bacteria at a concentration of 1E9 CFU were then plated onto C59 and vancomycin-loaded plates containing 1×, 2×, 4×, and 8× MIC concentrations of the therapeutic agents with 1% DMSO. Bacteria were incubated at 37°C for 48 hours, and colony counts were enumerated to calculate the frequency of resistance development, as described in the literature ([45], [46]).

Enterococcus faecalis = assay: MIC/MBC against Enterococcus faecalis; assay type: cell-based
[5] = tested on: Staphylococcus epidermidis isolates; assay: microbe, parasite or virus in culture; assay type: cell-based
[6] = tested on: MRSA isolates SA LL 06 and TCH 1516; assay: Kill kinetics against stationary-phase MRSA; assay type: cell-based, Staphylococcus aureus; conditions: shaking, 37°C
Method: MRSA isolates, TCH 1516 and SA LL 06, were grown to the stationary phase, and the rate of bacterial killing was determined. Frozen bacterial stocks were streaked onto TSA plates and grown overnight. A single colony was selected and incubated overnight in LB broth at 37°C with constant orbital shaking at 200 RPM. Next, bacterial suspension was washed twice with 150 mM sodium chloride and resuspended in MH broth at a concentration of 1.2E9 CFU/mL. […] Glass tubes containing 5 mL of bacteria and drug solutions were grown in a shaking incubator at 37°C. At 0, 4, 8, and 24 hours, bacterial suspensions were collected, serially diluted, and plated onto a blood agar plate. Bacteria were allowed to grow for 24 hours and were enumerated to yield colony-forming units per milliliter.

[7] = tested on: human bronchial epithelial (16HBE) cells; assay: alamarBlue cell viability assay, 16HBE; conditions: 24-hour incubation, non-linear regression
[8] = tested on: erythrocytes (sheep blood); assay: Hemolytic activity against sheep erythrocytes
Pseudomonas aeruginosa = assay: MIC against Pseudomonas aeruginosa; assay type: cell-based
[9] = tested on: MRSA isolate SAD05 biofilms; assay type: cell-based, Staphylococcus aureus; conditions: 72-hour biofilms of SAD05, MBEC assay
[10] = tested on: human dermal fibroblast (HDF) cells; assay: alamarBlue cell viability assay, HDF; conditions: HDFs, 24-hour incubation, non-linear regression
Streptococcus pyogenes = assay: MIC/MBC against Streptococcus pyogenes; assay type: cell-based; conditions: for MBC: Streptococcus pyogenes
[11] = ATCC49532, Enterococcus faecalis (ATCC 49532)
[12] = ATCC51575, Enterococcus faecalis (ATCC 51575)
[13] = 21 Staphylococcus epidermidis isolates
[14] = Staphylococcus aureus, MRSA, pH 5.5, MRSA 0606, pH 5.5
[15] = Staphylococcus aureus, MRSA, pH 5.5, MRSA 0608, pH 5.5
[16] = Staphylococcus aureus, MRSA, pH 5.5, MRSA 0634, pH 5.5
[17] = Staphylococcus aureus, MRSA, pH 5.5, MRSA 0641, pH 5.5
[18] = Staphylococcus aureus, MRSA, pH 5.5, MRSA 0646, pH 5.5
[19] = Staphylococcus aureus, MRSA, pH 5.5, TCH 1516, pH 5.5
[20] = Staphylococcus aureus, MRSA, pH 6.5, MRSA 0606, pH 6.5
[21] = Staphylococcus aureus, MRSA, pH 6.5, MRSA 0608, pH 6.5
[22] = Staphylococcus aureus, MRSA, pH 6.5, MRSA 0634, pH 6.5
[23] = Staphylococcus aureus, MRSA, pH 6.5, MRSA 0641, pH 6.5
[24] = Staphylococcus aureus, MRSA, pH 6.5, MRSA 0646, pH 6.5
[25] = Staphylococcus aureus, MRSA, pH 6.5, TCH 1516, pH 6.5
[26] = Staphylococcus aureus, MRSA, pH 7.4, MRSA 0606, pH 7.4
[27] = Staphylococcus aureus, MRSA, pH 7.4, MRSA 0608, pH 7.4
[28] = Staphylococcus aureus, MRSA, pH 7.4, MRSA 0634, pH 7.4
[29] = Staphylococcus aureus, MRSA, pH 7.4, MRSA 0641, pH 7.4
[30] = Staphylococcus aureus, MRSA, pH 7.4, MRSA 0646, pH 7.4
[31] = Staphylococcus aureus, MRSA, pH 7.4, TCH 1516, pH 7.4
[32] = Streptococcus pyogenes (NR1575)

## CC(=O)Oc1c(Cl)cc(Cl)cc1-c1cc(Cl)cc(Cl)c1OC(C)=O [C59Ac]
MRSA isolates; MRSA 0606, pH 7.4
  MBC: 8 µg/mL (≈ 19.6 µM)
  MIC: 4 µg/mL (≈ 9.8 µM)
MRSA isolates; MRSA 0608, pH 7.4
  MBC: 12 µg/mL (≈ 29.4 µM)
  MIC: 4 µg/mL (≈ 9.8 µM)
MRSA isolates; MRSA 0634, pH 7.4
  MBC: 4 µg/mL (≈ 9.8 µM)
  MIC: 4 µg/mL (≈ 9.8 µM)
MRSA isolates; MRSA 0641, pH 7.4
  MBC: 12 µg/mL (≈ 29.4 µM)
  MIC: 4 µg/mL (≈ 9.8 µM)
MRSA isolates; MRSA 0646, pH 7.4
  MBC: 8 µg/mL (≈ 19.6 µM)
  MIC: 4 µg/mL (≈ 9.8 µM)
MRSA isolates; TCH 1516, pH 7.4
  MBC: 4 µg/mL (≈ 9.8 µM)
  MIC: 4 µg/mL (≈ 9.8 µM)
MRSA isolates
  change of MIC and MBC with the reduction in pH: remained unchanged
[1]
  aqueous solubility: moderate aqueous solubility
[2]
  acid dissociation constant (Ka): 2.45 × 10^−12
  pH of solution: 6.61

## Oc1c(Cl)cc(Cl)cc1-c1cc(Cl)cc(Cl)c1O [C59, 3,3′,5,5′-tetrachloro-[1,1′-biphenyl]−2,2′-diol]
MRSA isolate TCH 1516 [3]
  increase in MIC: no change in MIC
MRSA isolate TCH 1516 [4]
  growth on drug-loaded plates: No growth
Enterococcus faecalis; [11]
  MBC: 16 µg/mL (≈ 49.4 µM)
  MIC: 8 µg/mL (≈ 24.7 µM)
Enterococcus faecalis; [12]
  MBC: 16 µg/mL (≈ 49.4 µM)
  MIC: 8 µg/mL (≈ 24.7 µM)
[5]; [13]
  MBC range: 6 to 12 µg/mL
  MIC range: 2 to 4 µg/mL
[5]; Staphylococcus epidermidis
  MIC90: 4 µg/mL (≈ 12.3 µM)
[5]; Staphylococcus epidermidis, read-out: MBC90
  MBC: 12 µg/mL (≈ 37 µM)
[6]; stationary-phase SA LL 06, C59 at 1× and 2× MIC
  bacterial killing after 24 hours: complete bacterial eradication
[6]; stationary-phase TCH 1516
  bacterial killing after 24 hours: did not result in complete bacterial killing
[7]
  LD50: 40.2 µg/mL
[8]; 1% sheep blood, 1-hour incubation
  concentrations at which erythrocytes were not lysed: up to 24 µg/mL
[8]; higher than MIC90, stated in the hemolysis discussion, cell type not named
  LD50 relative to MIC90: 24 fold
Pseudomonas aeruginosa; Pseudomonas aeruginosa (PAM57-15)
  MIC: > 32 µg/mL
Pseudomonas aeruginosa; Pseudomonas aeruginosa (PAO1)
  MIC: > 32 µg/mL
[9]
  concentration that completely eradicated biofilms: 16 µg/mL
[10]
  LD50: 56.0 µg/mL
MRSA isolates; Staphylococcus aureus, MRSA, 39 evaluated MRSA isolates, CLSI broth microdilution
  MIC90: 2 µg/mL (≈ 6.17 µM)
MRSA isolates; Staphylococcus aureus, MRSA, SA LL 06, as given for the kill kinetic assay
  MIC: 2 µg/mL (≈ 6.17 µM)
MRSA isolates; Staphylococcus aureus, MRSA, TCH 1516, as given for the kill kinetic assay
  MIC: 2 µg/mL (≈ 6.17 µM)
MRSA isolates; [14]
  MBC: 0.5 µg/mL (≈ 1.54 µM)
  MIC: 0.5 µg/mL (≈ 1.54 µM)
MRSA isolates; [15]
  MBC: 0.5 µg/mL (≈ 1.54 µM)
  MIC: 0.5 µg/mL (≈ 1.54 µM)
MRSA isolates; [16]
  MBC: 0.5 µg/mL (≈ 1.54 µM)
  MIC: 0.5 µg/mL (≈ 1.54 µM)
MRSA isolates; [17]
  MBC: 0.5 µg/mL (≈ 1.54 µM)
  MIC: 0.5 µg/mL (≈ 1.54 µM)
MRSA isolates; [18]
  MBC: 0.5 µg/mL (≈ 1.54 µM)
  MIC: 0.5 µg/mL (≈ 1.54 µM)
MRSA isolates; [19]
  MBC: 0.5 µg/mL (≈ 1.54 µM)
  MIC: 0.5 µg/mL (≈ 1.54 µM)
MRSA isolates; Staphylococcus aureus, MRSA, pH 5.5, read-out: Average MBC, average of six MRSA isolates, pH 5.5
  MBC: 0.5 µg/mL (≈ 1.54 µM)
MRSA isolates; Staphylococcus aureus, MRSA, pH 5.5, read-out: Average MIC, average of six MRSA isolates, pH 5.5
  MIC: 0.5 µg/mL (≈ 1.54 µM)
MRSA isolates; [20]
  MBC: 6 µg/mL (≈ 18.5 µM)
  MIC: 1 µg/mL (≈ 3.09 µM)
MRSA isolates; [21]
  MBC: 2 µg/mL (≈ 6.17 µM)
  MIC: 2 µg/mL (≈ 6.17 µM)
MRSA isolates; [22]
  MBC: 4 µg/mL (≈ 12.3 µM)
  MIC: 1 µg/mL (≈ 3.09 µM)
MRSA isolates; [23]
  MBC: 4 µg/mL (≈ 12.3 µM)
  MIC: 1 µg/mL (≈ 3.09 µM)
MRSA isolates; [24]
  MBC: 4 µg/mL (≈ 12.3 µM)
  MIC: 1 µg/mL (≈ 3.09 µM)
MRSA isolates; [25]
  MBC: 4 µg/mL (≈ 12.3 µM)
  MIC: 1 µg/mL (≈ 3.09 µM)
MRSA isolates; Staphylococcus aureus, MRSA, pH 6.5, read-out: Average MBC, average of six MRSA isolates, pH 6.5
  MBC: 4 µg/mL (≈ 12.3 µM)
MRSA isolates; Staphylococcus aureus, MRSA, pH 6.5, read-out: Average MIC, average of six MRSA isolates, pH 6.5
  MIC: 1.2 µg/mL (≈ 3.7 µM)
MRSA isolates; [26]
  MBC: 4 µg/mL (≈ 12.3 µM)
  MIC: 2 µg/mL (≈ 6.17 µM)
MRSA isolates; [27]
  MBC: 6 µg/mL (≈ 18.5 µM)
  MIC: 2 µg/mL (≈ 6.17 µM)
MRSA isolates; [28]
  MBC: 8 µg/mL (≈ 24.7 µM)
  MIC: 2 µg/mL (≈ 6.17 µM)
MRSA isolates; [29]
  MBC: 8 µg/mL (≈ 24.7 µM)
  MIC: 2 µg/mL (≈ 6.17 µM)
MRSA isolates; [30]
  MBC: 4 µg/mL (≈ 12.3 µM)
  MIC: 2 µg/mL (≈ 6.17 µM)
MRSA isolates; [31]
  MBC: 4 µg/mL (≈ 12.3 µM)
  MIC: 2 µg/mL (≈ 6.17 µM)
MRSA isolates; Staphylococcus aureus, MRSA, pH 7.4, read-out: Average MBC, average of six MRSA isolates, pH 7.4
  MBC: 5.7 µg/mL (≈ 17.6 µM)
MRSA isolates; Staphylococcus aureus, MRSA, pH 7.4, read-out: Average MIC, average of six MRSA isolates, pH 7.4
  MIC: 2 µg/mL (≈ 6.17 µM)
MRSA isolates; Staphylococcus aureus, MRSA, read-out: MBC90, 39 evaluated MRSA isolates, CLSI broth microdilution
  MBC: 6 µg/mL (≈ 18.5 µM)
MRSA isolates
  change of MIC and MBC with the reduction in pH: decreased as much as fourfold
[2]
  acid dissociation constant (Ka): 6.18 × 10^−19
  pH of solution: 9.86
Streptococcus pyogenes; Streptococcus pyogenes (NR1571), read-out: MIC
  MIC: 6 µg/mL (≈ 18.5 µM)
Streptococcus pyogenes; [32]
  MIC: 6 µg/mL (≈ 18.5 µM)
  MBC: 16 µg/mL (≈ 49.4 µM)
Streptococcus pyogenes; Streptococcus pyogenes (NR1571)
  MBC: 24 µg/mL (≈ 74.1 µM)
